The source of these data is US9931331B2 (priority 2013, dated 2018).

Usually viability stands for a per cent measure of how many cells are alive, often set against a control.

Like-named read-outs stand apart in the source and are kept apart here. Residues, ends and D or L forms follow the SMILES beside them. *: point of attachment. Cbz = O=C(OCc1ccccc1)*

A short description of one series: in vitro. The note with it: human. How it is done:
(§1) Strains of cervical cancer cell (HeLa), kidney cancer cell (Caki-1), brain tumor cell (T98G), breast cancer cell (MDA-MB 435S), and colon cancer cell (DLD-1), multiple myeloma cell (RPMI-8226), and a strain of normal breast epithelial cell (MCF-10A) were available from ATCC (American Type Culture Collection, USA). The strains of cervical cancer cell (HeLa), kidney cancer cell (Caki-1), brain tumor cell (T98G), breast cancer cell (MDA-MB 435S), and colon cancer cell (DLD-1) were cultured by using a DMEM medium including 10% fetal bovine serum (FBS), 2 mM of L-glutamin, 100 i.u./ml of penicillin, and […] of streptomycin for the culture and maintenance; multiple myeloma cell (RPMI-8226) was cultured by using a RPMI1640 medium including 10% FBS, 100 i.u./ml of penicillin, and […] of streptomycin; and the strain of normal breast epithelial cell (MCF-10A) was cultured by using a mammary epithelial growth medium (MEGM) including a bovine pituitary extract, insulin, human epidermal growth factor, hydrocortisone, and antibiotics, and the culture conditions included 37° C. and 5% CO2 in an incubator.
(§2) Then, the cells were stained by using 2 μM calcein-AM and 4 μM ethidium homodimer-1, and cell viability was measured by using a fluorescent microscope (Axiovert 200M, available from Carl Zeiss, Jena, Germany).

The subject of series [1] is breast cancer cell (MDA-MB 435S). In words: Cell viability (calcein-AM / ethidium homodimer-1), MDA-MB 435S. The note with it: 24 h. On the procedure:
as §1, §2

Series [2] has as its system cervical cancer cell (HeLa). Description: Cell viability (calcein-AM / ethidium homodimer-1), HeLa. The note with it: 24 h. On the procedure:
as §1, §2

In the next series the test system is brain tumor cell (T98G). In words: Cell viability (calcein-AM / ethidium homodimer-1), T98G. The note with it: 24 h. On the procedure: as §1, §2
Series [3] relates to multiple myeloma cell (RPMI-8226). In words: Cell viability (calcein-AM / ethidium homodimer-1), RPMI-8226. The note with it: for Cell viability: RPMI-8226, 24 h. On the procedure: as §1, §2
The subject of series [4] is colon cancer cell (DLD-1). Description: Cell viability (calcein-AM / ethidium homodimer-1), DLD-1. The note with it: for cytotoxicity at 1 µM: read-out: cell viability decreased. How it is done: as §1, §2
In series [5] the test system is kidney cancer cell (Caki-1). In words: Cell viability (calcein-AM / ethidium homodimer-1), Caki-1. On the procedure:
as §1, §2

The test system of series [6] is normal breast epithelial cell (MCF-10A). In words: Cell viability (calcein-AM / ethidium homodimer-1), MCF-10A. The note with it: MCF-10A, 24 h. On the procedure:
as §1, §2

The mark [7] stands for this setting: Homo sapiens, MDA-MB-435S, read-out: Cell viability.
Where [8] appears, read: Homo sapiens, read-out: Cell viability.
Where [9] appears, read: Homo sapiens, read-out: cell viability decreased.
Setting [10] is: Homo sapiens, RPMI-8226, 24 h, read-out: Cell viability.
Where [11] appears, read: Homo sapiens, DLD-1, 24 h, read-out: Cell viability.
Where [12] appears, read: Homo sapiens, CAKI-1, 24 h, read-out: Cell viability.
Setting [13] is: Homo sapiens, CAKI-1, 24 h, read-out: cell viability decreased.
The mark [14] stands for this setting: Homo sapiens, MDA-MB-435S, read-out: cell viability decreased.

With `CC(C)C[C@H](NC(=O)[C@H](Cc1ccccc1)NC(=O)c1cnccn1)B(O)O` [Bortezomib, N-(2-pyrazine)carbonyl-L-phenylalanine-L-leucine boronic acid], in the series “in vitro”, the viability at 24 h, 15 nM was found to be 98.8% and the viability at 24 h, 30 nM is 94.6%. In series [1] (setting [7]), the viability at 0.0075 µM is 100% and the viability at 0.015 µM is 91%. Further, the cancer cell toxicity result in series [1] (MDA-MB 435S, bortezomib alone up to 15 nM) is “did not induce cancer cell toxicity”. In series [2] (setting [8]), the viability at 0.02 µM is 100% and the viability at 0.04 µM was 90.8%. The cytotoxicity at 0.04 µM in series [2] (setting [9]) is ~10%. Besides, in the series with brain tumor cell (T98G) (setting [8]), the viability at 0.005 µM was 99.7% and the viability at 0.01 µM is 89.7%. For the same compound, in series [3] (setting [10]), the viability at 0.001 µM was 100% and the viability at 0.002 µM was 81.7%. For the same compound, in series [4] (setting [11]), the viability at 0.04 µM was 99.7% and the viability at 0.06 µM was 95%. In series [5] (setting [12]), the viability at 0.01 µM is 100% and the viability at 0.02 µM is 78%. In addition, the cytotoxicity at 0.02 µM in series [5] (setting [13]) is ~22%.

In the series “in vitro”, `CC(C)C[C@H](NC(=O)[C@H](CCc1ccccc1)NC(=O)CN1CCOCC1)C(=O)N[C@@H](Cc1ccccc1)C(=O)N[C@@H](CC(C)C)C(=O)[C@@]1(C)CO1` [Carfilzomib] showed a viability at 24 h, 50 nM of 99.5% and a viability at 24 h, 100 nM of 98.1%. In series [1] (setting [7]), the viability at 0.025 µM was 87.1% and the viability at 0.05 µM was 84.4%. Moreover, the cytotoxicity at 0.05 µM in series [1] (setting [14]) is ~15%. Moreover, in series [2] (setting [8]), the viability at 0.05 µM was 90% and the viability at 0.1 µM is 89.8%. The cytotoxicity at 0.1 µM in series [2] (setting [9]) is ~10%. In addition, in the series with brain tumor cell (T98G) (setting [8]), the viability at 0.02 µM is 100% and the viability at 0.04 µM is 93%. For the same compound, in series [3] (setting [10]), the viability at 0.005 µM was 95.8% and the viability at 0.01 µM is 63.4%. Moreover, in series [4] (setting [11]), the viability at 0.1 µM is 98.2% and the viability at 0.2 µM is 94.7%. For the same compound, in series [5] (setting [12]), the viability at 0.05 µM was 95.6% and the viability at 0.1 µM is 95.2%.

Regarding `CC1=C(O)C(=O)C=C2C1=CC=C1[C@@]2(C)CC[C@@]2(C)[C@@H]3C[C@](C)(C(=O)O)CC[C@]3(C)CC[C@]12C` [Celastrol], the viability at 24 h, 0.25 μM in “in vitro” (Cell viability, MCF-10A, celastrol 0.25 μM alone, 24 h) was 98.9%. Besides, the viability at 24 h, 0.5 μM in “in vitro” (Cell viability, MCF-10A, celastrol 0.5 μM alone, 24 h) is 95.9%. Also, the viability at 0.25 µM in series [1] (setting [7]) is 100%. Besides, the viability at 0.5 µM in series [1] (setting [7]) is 92.5%; in series [2] (Homo sapiens, read-out: Cell viability, HeLa, celastrol 0.5 μM alone), 100%; in series [4] (setting [11]), 90.5%. Also, the cytotoxicity at 0.5 µM in series [1] (Homo sapiens, MDA-MB-435S, read-out: cell viability decreased, MDA-MB 435S, celastrol alone 0.5 μM) is ~7%. Moreover, the viability at 1 µM is 88.4% in series [2] (Homo sapiens, read-out: Cell viability, HeLa, celastrol 1 μM alone); 100% in the series with brain tumor cell (T98G) (Homo sapiens, read-out: Cell viability, T98G, celastrol 1 μM alone); 88.7% in series [4] (setting [11]); 100% in series [5] (setting [12]). Also, the cytotoxicity at 1 µM in series [2] (setting [9]) is ~11%; in series [4] (Homo sapiens, DLD-1, 24 h), ~11%. Also, the viability at 2 µM was 91.3% with brain tumor cell (T98G) (Homo sapiens, read-out: Cell viability, T98G, celastrol 2 μM alone) and 69.6% in series [5] (setting [12]). Also, the cytotoxicity at 2 µM in the series on brain tumor cell (T98G) (setting [9]) was ~9%; in series [5] (setting [13]) it was ~30%. The viability at 0.05 µM in series [3] (setting [10]) was 90.7%. In series [3] (setting [10]), the viability at 0.1 µM was 69%.

`COc1cc(/C=C/C(=O)CC(=O)/C=C/c2ccc(O)c(OC)c2)ccc1O` [Curcumin] gave a viability at 24 h, 10 μM in the series “in vitro” of 97.7%. The viability at 24 h, 20 μM in the series “in vitro” was 95.9%. In addition, the viability at 10 µM is 70.7% in series [1] (setting [7]), 100% in series [2] (setting [8]), 99.7% in the series on brain tumor cell (T98G) (setting [8]) and 93.6% in series [3] (setting [10]). The viability at 20 µM in series [1] (setting [7]) was 58.8%; in series [2] (setting [8]) it was 91.3%; with brain tumor cell (T98G) (setting [8]), 96.5%; in series [3] (setting [10]), 61.9%; in series [4] (setting [11]) it was 96.7%. The cytotoxicity at 20 µM in series [1] (setting [14]) is ~41%; in series [2] (setting [9]) it was ~9%. Further, the viability at 30 µM in series [4] (setting [11]) is 89%; in series [5] (setting [12]), 68.2%. Further, the viability at 15 µM in series [5] (setting [12]) is 78.5%. In addition, the cytotoxicity at 30 µM in series [5] (setting [13]) was ~32%.

`CC[C@H](C)[C@H](NC(=O)[C@H]([C@@H](C)CC)N(C)C(C)=O)C(=O)N[C@H](C(=O)N[C@@H](CC(C)C)C(=O)[C@@]1(C)CO1)[C@@H](C)O` [Epoxomicin]: the Cell viability in series [6] (epoxomicin 10 nM alone) is 97.62; in series [6] (epoxomicin 20 nM alone) it was 94.36; in series [2] (epoxomicin 10 nM alone), 100; in series [2] (epoxomicin 20 nM alone), 87.73; with brain tumor cell (T98G) (epoxomicin 5 nM alone), 95.66; in the series on brain tumor cell (T98G) (epoxomicin 10 nM alone), 79.79. Moreover, the Cell viability is on record as 100 in series [3] (epoxomicin 2.5 nM alone); 92.72 in series [3] (epoxomicin 5 nM alone); 99.70 in series [4] (DLD-1, epoxomicin 20 nM alone, 24 h); 100 in series [5] (Caki-1, epoxomicin 20 nM alone, 24 h). For the same compound, the cell viability decreased entry in series [1] (MDA-MB 435S, epoxomicin alone 15 nM) is “about 18%”; in series [2] (epoxomicin alone 20 nM) it was “about 12%”; in series [5] (Caki-1, epoxomicin alone 40 nM, 24 h), “about 35%”. The cancer cell toxicity result in series [5] (Caki-1, epoxomicin alone up to 20 nM, 24 h) is listed as “did not induce cancer cell toxicity”.

In the series “in vitro”, `CC(C)C[C@@H](C=O)NC(=O)[C@H](CC(C)C)NC(=O)[C@H](CC(C)C)NC(=O)OCc1ccccc1` [MG132] (Cbz-Leu-Leu-Leu-aldehyde) gave a viability at 24 h, 0.25 μM of 95.2%. The compound also showed a viability at 24 h, 0.5 μM in “in vitro” of 92.9%. Also, the viability at 0.25 µM in series [1] (setting [7]) is 100%; in the series on brain tumor cell (T98G) (setting [8]) it was 96.5%. For the same compound, the viability at 0.5 µM in series [1] (setting [7]) was 93%; in series [2] (setting [8]), 100%; in series [4] (setting [11]) it was 91.7%; in series [5] (setting [12]), 100%. The cancer cell toxicity result was “did not exhibit significant cancer cell toxicity” in series [1] (MDA-MB 435S, MG132 alone up to 0.5 μM) and “did not exhibit significant cancer cell toxicity” in the series on brain tumor cell (T98G) (MG132 up to 0.25 μM). For the same compound, the viability at 1 µM is 100% in series [2] (setting [8]), 81.3% in series [4] (setting [11]) and 89.3% in series [5] (setting [12]). In addition, in series [2] (MG132 alone up to 1 μM), the cell toxicity entry is “did not exhibit cell toxicity”. Moreover, the viability at 0.125 µM in the series with brain tumor cell (T98G) (setting [8]) was 99.7%. Moreover, the viability at 0.1 µM in series [3] (setting [10]) was 100%. Also, the viability at 0.2 µM in series [3] (setting [10]) is 99.1%. Further, the cytotoxicity at 1 µM is ~19% in series [4] (Homo sapiens, DLD-1, 24 h) and ~10% in series [5] (setting [13]).

In “in vitro”, `CC(C)C[C@H](NC(=O)CNC(=O)c1cc(Cl)ccc1Cl)B1OC(=O)C(CC(=O)O)(CC(=O)O)O1` [MLN9708] had a viability at 24 h, 50 nM of 98%. Moreover, the viability at 24 h, 100 nM in “in vitro” worked out at 92.3%. The viability at 0.1 µM in series [1] (setting [7]) was 97.5%; in series [2] (setting [8]), 100%; in the series on brain tumor cell (T98G) (setting [8]), 84.7%; in series [4] (setting [11]) it was 98.2%; in series [5] (setting [12]) it was 83.3%. For the same compound, the viability at 0.2 µM was 93.3% in series [1] (setting [7]), 97.8% in series [2] (setting [8]), 95.2% in series [4] (setting [11]) and 75.7% in series [5] (setting [12]). Also, the figures for the cytotoxicity at 0.2 µM in series [1] (setting [14]) and in series [5] (setting [13]) were ~10% and ~25%, respectively. Also, the viability at 0.05 µM with brain tumor cell (T98G) (setting [8]) is 92%. Also, in series [3] (setting [10]), the viability at 0.02 µM is 100%. Also, the viability at 0.04 µM in series [3] (setting [10]) was 80.8%.
